Read-outs that look alike come from different tables or passages of the source.
Columns and labels:
[1] = Humidity-controlled form conversion; type: physicochemical
Description: The samples were monitored each week for a total duration of five weeks. Each sample was tested by XRPD, DSC, TGA, and Karl Fisher analysis.

HCT 116 p53+/+ = experiment: In vitro combination, HCS cell count assay (CI50); type: cell-based, human; details: HCT 116 p53+/+ and p53−/−; dependent on ratios or p53 status
Description: A combination index compares the concentration of compounds dosed in combination required for a given fractional effect to the concentration of single agent compound required to give the same fractional affect. In this application, the fractional effect is EC50.
The equation above represents the theoretical additive response for two mutually exclusive drugs, and takes into consideration the ratio at which the two compounds are dosed. […].
[…]. High content cell imaging and a cell proliferation assay were used to measure the anti-proliferative effects of the compounds.
HCT 116 cells transfected with p53 RNAi or a control vector were cultured in DMEM, 10% FBS, and 1× antibiotic/antimycotic. Cells were plated in growth medium in black/clear Falcon® 384-well plates. Cells were treated to assess the effects of p53 status, drug dose ratios, and dose schedules. […]. […] All procedures were performed by a Tecan robotic platform.
After overnight growth, cells were treated with compound for a total of 72 hours and incubated at 37° C., 5% CO2. Cells were fixed in 4% formaldehyde and stained with 1:4000 dilution of 10 mg/mL Hoechst 33342. HCS images were captured and data analyzed using the Target Activation application, object count per field parameter, on the ArrayScan VTI instrument (Cellomics, Inc.).

[2] = Dynamic Vapor Sorption (DVS); type: physicochemical; details: for DVS Result (hygroscopicity): Dynamic Vapor Sorption of crystalline form of Compound 1
Description: DVS experiments were carried out on all available forms by first drying the sample at 0% RH and 25° C. until an equilibrium weight was reached or a maximum of four hours. The sample was then subjected to an isothermal (25° C.) adsorption scan from 10 to 90% RH in steps of 10% RH. The sample was allowed to equilibrate to an asymptotic weight at each point for a maximum of four hours. Following adsorption, a desorption scan from […] to 0% RH (at 25° C.) was run in steps of −10% RH again allowing a maximum of four hours for equilibration to an asymptotic weight. The sample was then dried for two hours at 80° C. and the resulting solid analyzed by XRPD.

[3] = Reslurry of Form A in 20 solvents; type: physicochemical; details: THF, EtOAc, MeCN, acetone, MEK, IPA, dioxane, MTBE, IPAc, heptane, CH2Cl2, toluene; room temperature, two weeks
Description: Various amounts of solvents were added to each vial to form slurries which were allowed to stir at room temperature for two weeks. The slurries were then filtered with the help of a gentle nitrogen flow. The samples were further dried in vacuo at room temperature for two hours, except the sample from formamide which was dried in vacuo for about 20 hours.
After two weeks, the samples were filtered and then analyzed by XRPD, DSC, and TGA. Three new forms were found from the slurry studies. These Forms I, K, and L were generated from AcOH, NMP, and DMF, respectively. The slurry samples from other solvents afforded results consistent with the single solvent recrystallizations. […] Forms D, E, G, and H were generated from reslurry experiments in DMA, formamide, methanol, and ethanol, respectively.

[4] = Description: The solvents were chosen based on differences in polarity and functionality and on their classification according to the International Conference on Harmonization (ICH), with preference given to class II and class III solvents. After each addition of solvent, the vials were visually inspected to assess dissolution and further heated to 55° C. to ensure dissolution.

## CS(=O)(=O)O.O=C(Nc1cccc(Cl)c1)Nc1ncc(CCNc2ncnc3ccsc23)s1 [Form B]
[1]; all humidity chambers, five weeks
  form conversion under humidity: No form conversion

## CC(=O)O[C@@]12CO[C@@H]1C[C@H](O)[C@@]1(C)C(=O)[C@H](O)C3=C(C)[C@@H](OC(=O)[C@H](O)[C@@H](NC(=O)OC(C)(C)C)c4ccccc4)C[C@@](O)([C@@H](OC(=O)c4ccccc4)[C@H]21)C3(C)C [docetaxel]
HCT 116 p53+/+
  interaction with Compound 1 in cell count assay: conditional synergies

## CS(=O)(=O)O.O=C(Nc1cccc(Cl)c1)Nc1ncc(CCNc2ncnc3ccsc23)s1 [A]
[1]; 0% RH, week 1
  KF: 0.17 Wt % H2O
  TGA Loss: 0.0 Wt %
[1]; 0% RH, week 2
  KF: <0.1 Wt % H2O
  TGA Loss: 0.0 Wt %
[1]; 0% RH, week 3
  KF: 0.11 Wt % H2O
  TGA Loss: 0.0 Wt %
[1]; 0% RH, week 4
  KF: <0.1 Wt % H2O
  TGA Loss: 0.0 Wt %
[1]; 0% RH, week 5
  KF: 0.1 Wt % H2O
  TGA Loss: 0.0 Wt %
[1]; 20% RH, week 1
  KF: 0.16 Wt % H2O
  TGA Loss: 0.0 Wt %
[1]; 20% RH, week 2
  KF: 0.12 Wt % H2O
  TGA Loss: 0.0 Wt %
[1]; 20% RH, week 3
  KF: 0.11 Wt % H2O
  TGA Loss: 0.0 Wt %
[1]; 20% RH, week 4
  KF: <0.1 Wt % H2O
  TGA Loss: 0.0 Wt %
[1]; 20% RH, week 5
  KF: 0.2 Wt % H2O
  TGA Loss: 0.0 Wt %
[1]; 52% RH, week 1
  KF: 0.29 Wt % H2O
  TGA Loss: 0.0 Wt %
[1]; 52% RH, week 2
  KF: 0.16 Wt % H2O
  TGA Loss: 0.0 Wt %
[1]; 52% RH, week 3
  KF: 0.11 Wt % H2O
  TGA Loss: 0.0 Wt %
[1]; 75% RH, week 1
  KF: 0.12 Wt % H2O
  TGA Loss: 0.0 Wt %
[1]; 75% RH, week 2
  KF: 0.13 Wt % H2O
  TGA Loss: 0.0 Wt %
[1]; 75% RH, week 3
  KF: 0.19 Wt % H2O
  TGA Loss: 0.0 Wt %
[1]; 75% RH, week 4
  KF: <0.1 Wt % H2O
  TGA Loss: 0.0 Wt %
[1]; 75% RH, week 5
  KF: 0.3 Wt % H2O
  TGA Loss: 0.0 Wt %
[1]; 95% RH, week 1
  KF: 1.5 Wt % H2O
  TGA Loss: 0.1 Wt %
[1]; 95% RH, week 2
  KF: 3.2 Wt % H2O
[1]; 95% RH, week 3
  KF: 3.7 Wt % H2O
[1]; 95% RH, week 4
  KF: 3.5 Wt % H2O
  TGA Loss: 1.5 Wt %
[1]; 95% RH, week 5
  KF: 3.9 Wt % H2O
[1]; starting point, week 0
  KF: 0.07 Wt % H2O
  TGA Loss: 0.0 Wt %

## CS(=O)(=O)O.O=C(Nc1cccc(Cl)c1)Nc1ncc(CCNc2ncnc3ccsc23)s1 [E]
[2]; at 90% RH
  DVS Result (water uptake): change, 8.0 wt wt %

## CS(=O)(=O)O.O=C(Nc1cccc(Cl)c1)Nc1ncc(CCNc2ncnc3ccsc23)s1 [G]
[2]
  DVS Result (hygroscopicity): change, low

## CS(=O)(=O)O.O=C(Nc1cccc(Cl)c1)Nc1ncc(CCNc2ncnc3ccsc23)s1 [B]
[2]
  DVS Result (hygroscopicity): change, low
[1]; 0% RH, week 1
  KF: 1.4 Wt % H2O
[1]; 0% RH, week 2
  KF: 3.4 Wt % H2O
[1]; 0% RH, week 3
  KF: 3.6 Wt % H2O
[1]; 0% RH, week 4
  KF: 3.0 Wt % H2O
[1]; 0% RH, week 5
  KF: 3.4 Wt % H2O
[1]; 20% RH, week 1
  KF: 3.3 Wt % H2O
[1]; 20% RH, week 2
  KF: 3.7 Wt % H2O
[1]; 20% RH, week 3
  KF: 3.6 Wt % H2O
[1]; 20% RH, week 4
  KF: 3.4 Wt % H2O
[1]; 20% RH, week 5
  KF: 3.5 Wt % H2O
[1]; 52% RH, week 1
  KF: 3.0 Wt % H2O
[1]; 52% RH, week 2
  KF: 3.6 Wt % H2O
[1]; 52% RH, week 3
  KF: 3.7 Wt % H2O
[1]; 52% RH, week 4
  KF: 3.3 Wt % H2O
[1]; 52% RH, week 5
  KF: 3.6 Wt % H2O
[1]; 75% RH, week 1
  KF: 3.4 Wt % H2O
[1]; 75% RH, week 2
  KF: 3.4 Wt % H2O
[1]; 75% RH, week 3
  KF: 2.4 Wt % H2O
[1]; 75% RH, week 4
  KF: 3.3 Wt % H2O
[1]; 95% RH, week 1
  KF: 3.2 Wt % H2O
[1]; 95% RH, week 2
  KF: 3.5 Wt % H2O
[1]; 95% RH, week 3
  KF: 4.6 Wt % H2O
  TGA Loss: 3.2 Wt %
[1]; 95% RH, week 4
  KF: 3.7 Wt % H2O
[1]; 95% RH, week 5
  KF: 4.7 Wt % H2O
[1]; starting point, week 0
  KF: 3.0 Wt % H2O

## CS(=O)(=O)O.O=C(Nc1cccc(Cl)c1)Nc1ncc(CCNc2ncnc3ccsc23)s1 [Form A]
[3]
  form after reslurry: remained unchanged
[1]; 0, 25, 52, and 75% RH, five weeks
  form conversion under humidity: No form conversion
[1]; 95% RH, two weeks
  form conversion under humidity: converted to Form B
[4]; Solvent AcOH, Temp RT
  Approximate Solubility Conc.: >17000 µg/mL
  Soluble: Yes
[4]; Solvent Acetone, Temp 55
  Approximate Solubility Conc.: <370 µg/mL
  Soluble: No
[4]; Solvent DCM, Temp 55
  Approximate Solubility Conc.: <430 µg/mL
  Soluble: No
[4]; Solvent DMA, Temp RT
  Approximate Solubility Conc.: >28000 µg/mL
  Soluble: Yes
[4]; Solvent DMF, Temp RT
  Approximate Solubility Conc.: >9000 µg/mL
  Soluble: Yes
[4]; Solvent Dioxane, Temp 55
  Approximate Solubility Conc.: <280 µg/mL
  Soluble: No
[4]; Solvent EtOAc, Temp 55
  Approximate Solubility Conc.: <250 µg/mL
  Soluble: No
[4]; Solvent EtOH, Temp 55
  Approximate Solubility Conc.: ~630 µg/mL
  Soluble: Yes
[4]; Solvent Formamide, Temp RT
  Approximate Solubility Conc.: >16000 µg/mL
  Soluble: Yes
[4]; Solvent Heptane, Temp 55
  Approximate Solubility Conc.: <430 µg/mL
  Soluble: No
[4]; Solvent IPA, Temp 55
  Approximate Solubility Conc.: <300 µg/mL
  Soluble: Partially
[4]; Solvent IPAc, Temp 55
  Approximate Solubility Conc.: <400 µg/mL
  Soluble: No
[4]; Solvent MEK, Temp 55
  Approximate Solubility Conc.: <480 µg/mL
  Soluble: No
[4]; Solvent MTBE, Temp 55
  Approximate Solubility Conc.: <200 µg/mL
  Soluble: No
[4]; Solvent MeCN, Temp 55
  Approximate Solubility Conc.: <420 µg/mL
  Soluble: No
[4]; Solvent MeOH, Temp 55
  Approximate Solubility Conc.: ~700 µg/mL
  Soluble: Yes
[4]; Solvent NMP, Temp RT
  Approximate Solubility Conc.: >14000 µg/mL
  Soluble: Yes
[4]; Solvent THF, Temp 55
  Approximate Solubility Conc.: <320 µg/mL
  Soluble: No
[4]; Solvent Toluene, Temp 55
  Approximate Solubility Conc.: <330 µg/mL
  Soluble: No
[4]; Solvent Water, Temp 55
  Approximate Solubility Conc.: <280 µg/mL
  Soluble: No
[4]; in DMF, NMP, DMA, formamide, AcOH
  solubility: soluble
[4]; in THF, EtOAc, MeCN, acetone, MEK, IPA, water, dioxane, MTBE, IPAc, heptane, CH2Cl2 and toluene
  solubility: poor solubility
[4]; in methanol and ethanol
  solubility: sparingly soluble

## Nc1ccn([C@@H]2O[C@H](CO)[C@@H](O)C2(F)F)c(=O)n1 [gemcitabine]
HCT 116 p53+/+
  interaction with Compound 1 in cell count assay: conditional synergies

Source: patent US20110293745A1, “AURORA KINASE INHIBITORS” (SUNESIS PHARMACEUTICALS, INC., priority 2008, published 2011)
